According to patent US20130252930A1 (BIOMARIN PHARMACEUTICAL INC., priority 2010, published 2013):
Read-outs that look alike come from different tables or passages of the source.

How the values were obtained:
[1] = molecular target: T1, Cyp21 enzyme (Human HEK 293-Cyp21 stable transfected cells) (Homo sapiens, UniProt P08686); test: CYP21-HEK293 enzymatic assay (IC50) (Biological Example 11); assay type: cell-based; details: HEK 293-Cyp21 stable transfected cells; read-out: CYP21-HEK293 enzymatic assay IC50 (Biological Example No. 11)
T1 construct: expressed in transfected cells
T1 sequence (P08686 1-495): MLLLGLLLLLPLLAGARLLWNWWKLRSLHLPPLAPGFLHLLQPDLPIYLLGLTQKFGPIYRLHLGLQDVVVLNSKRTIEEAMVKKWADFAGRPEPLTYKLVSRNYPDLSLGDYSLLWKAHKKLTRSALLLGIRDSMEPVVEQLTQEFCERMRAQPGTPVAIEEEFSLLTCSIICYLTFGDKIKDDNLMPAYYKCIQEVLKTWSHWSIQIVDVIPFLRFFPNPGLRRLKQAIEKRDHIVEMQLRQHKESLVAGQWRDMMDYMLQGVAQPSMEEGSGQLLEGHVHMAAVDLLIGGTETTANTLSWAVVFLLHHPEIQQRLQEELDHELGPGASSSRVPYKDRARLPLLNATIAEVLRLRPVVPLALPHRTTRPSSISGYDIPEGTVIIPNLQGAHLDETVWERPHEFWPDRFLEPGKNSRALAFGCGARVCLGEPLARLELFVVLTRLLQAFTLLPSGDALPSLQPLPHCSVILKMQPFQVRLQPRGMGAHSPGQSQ
Experimental: This assay was used to determine compound activity against Cyp21 enzyme. […] The next day, 20 μL medium was carefully removed and 10 μL of 10× pre-made compounds in DMEM+10% FBS+10% methanol was transferred to the wells to final concentrations of 1000, 100, 10, 1, or 0.1 nM. Mock treatment was 1% methanol in growth media and the cells were left at 37° C., 5% CO2 for 5 hr. After the incubation, 10 μL of substrate progesterone (Sigma) was added to the wells to make a final concentration of 10 μM. The cells were incubated the cells at 37° C. for 20 hr. At the end of incubation, 90 μL of conditioned media was removed to measure DOC level by ELISA.
The next day, the plates were washed twice with 250 μl of wash solution (0.015M PBS pH 7.4 containing 0.05% Tween 20). After being washed, the wells were blocked with 250 μL blocking buffer (3% BSA in 0.025M PBS, pH 7.4) at 37° C. for 2 h. The plates were washed again 3 times as before, and then 90 μL of sample /standards (prepared in complete growth media) was added into the appropriate wells followed by 10 μL of antibody solution (1:450 rabbit anti-DOC in 0.6% BSA/PBS). The plates were incubated at room temperature for 2 h on a shaker. The contents of the wells were removed and the plate was washed 4 times. After the final wash, 100 μL of secondary antibody (1:12000 HRP-goat-anti-rabbit IgG conjugate 0.6% BSA/PBS) was added into each well. […] The plate was washed again 4 times and 100 μL of TMB substrate solution was added to each well. The plate was incubated at room temperature for 10 min. 100 μL of stop solution was added to each well and the optical density was read at 450 nm.
The mean absorbance value for each sample was used to determine the corresponding concentration from the standard curve. Data was analyzed with “log(antagonist) vs response variable slope” under “non-linear regression analysis” using Prism5 software.

[2] = Human liver microsome stability assay (Biological Example 8b); details: liver microsomes, pH 7.4
Experimental: The reaction was started with addition of excess NADPH (5 mg/mL, 15 μL in 0.1 M potassium phosphate buffer, 1.0 mM EDTA, pH 7.4), the total volume is 45 μL (compound final concentration was 1 μM). […] 50 μL of the supernatant was transferred from each well into a 96-well sample plate containing 50 μL of ultra-pure water (Millipore) for LC-MS/MS analysis.

[3] = molecular target: T2, CYP17 (human testicular microsome) (Homo sapiens, UniProt P05093); test: CYP17 enzymatic assay (% inhibition at 10 nM), version 1 (Biological Example 5); assay type: biochemical; details: 10 nM compound, DHEA by ELISA, read-out: Biological Example No. 5: CYP17 percent inhibition at 10 nM (version 1)
T2 construct: using microsomal fraction from human testis (Celsis Cat #S00110) as the enzyme source; tissue Celsis S00110; host or cells: human testis microsomal fraction
T2 sequence (P05093 1-508): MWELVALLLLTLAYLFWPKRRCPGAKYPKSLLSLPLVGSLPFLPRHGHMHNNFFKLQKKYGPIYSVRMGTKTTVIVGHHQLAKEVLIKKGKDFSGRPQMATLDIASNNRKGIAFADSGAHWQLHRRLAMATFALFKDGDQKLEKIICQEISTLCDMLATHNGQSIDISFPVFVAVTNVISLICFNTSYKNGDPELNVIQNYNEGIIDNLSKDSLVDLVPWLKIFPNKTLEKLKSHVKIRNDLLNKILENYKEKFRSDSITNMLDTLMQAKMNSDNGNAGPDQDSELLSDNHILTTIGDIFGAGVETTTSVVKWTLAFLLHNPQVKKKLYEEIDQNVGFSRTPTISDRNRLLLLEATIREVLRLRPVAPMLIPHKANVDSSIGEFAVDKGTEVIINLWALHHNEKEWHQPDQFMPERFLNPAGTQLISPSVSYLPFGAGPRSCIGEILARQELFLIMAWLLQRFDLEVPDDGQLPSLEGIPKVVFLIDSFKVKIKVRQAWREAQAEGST
Experimental: The assays were performed in 96-well plates. Typical assays were carried out in total 100 μL volume that included test compounds at 10 nM concentration, 1× reaction buffer, 0.5 mM NADPH, 1 μM 17α-hydroxypregnenolone, and 2.5 μL of diluted human testicular microsome (Celsis. Cat #S00110). Reaction without test compound served as positive control. Reactions were allowed to incubate at 37° C. for 90 minutes with gentle shaking. The reaction was stopped by directly applying the enzymatic reaction mixture to ELISA plate for evaluation of DHEA concentration according to manufacturer's protocol (IBL America). A standard curve (OD450 vs. DHEA concentration) was generated using purified DHEA. […] Percent inhibition (inhibition %) of the compound was calculated using normalized DHEA concentration based on following formula: 100-([DHEA] of compound/[DHEA] of positive control *100).

[4] = molecular target: T2, CYP17 (human testicular microsome); test: CYP17 enzymatic assay (IC50) (Biological Example 4); assay type: biochemical
[5] = molecular target: T2, CYP17 (human testicular microsome); test: CYP17 enzymatic assay (% inhibition at 1 nM) (Biological Example 12); assay type: biochemical; details: compound at 1 nM
[6] = human testicular microsome, DHEA by ELISA, read-out: Biological Example No. 4: CYP17 enzymatic assay IC50
[7] = read-out: CYP17 enzymatic assay % inhibition at 1 nM (Biological Example No. 12)
[8] = human testicular microsome, read-out: CYP17 enzymatic assay IC50 (Biological Example No. 4)
[9] = human testicular microsome, read-out: Biological Example No. 4: CYP17 enzymatic assay IC50
[10] = read-out: Biological Example No. 12: CYP17 enzymatic assay % inhibition at 1 nM

With `CN1CC[C@@]2(C)C(=CC1=O)C1CC1[C@H]1C3=CC=C(c4cccnc4)[C@@]3(C)CC[C@@H]12` (stereo partly drawn) [Compound 396, (5aR,7aS)-3,5a,7a-trimethyl-8-(pyridin-3-yl)-3,4,5,5a,5b,6,7,7a,10b,10c,11,11a-dodecahydro-2H-cyclopenta[5,6]cyclopropa[3,4]naphtho[1,2-d]azepin-2-one] the IC50 [1] was 10 to 100 nM.
Molecule `C[C@]12CCC(=O)CCC1=CCC1[C@@H]2CC[C@]2(C)C(n3ccnc3)=CC[C@@H]12` (stereo partly drawn) [Compound 106, (3aS,10aR,10bS,12aS)-1-(1H-imidazol-1-yl)-10a,12a-dimethyl-3,3a,3b,4,6,7,10,10a,10b,11,12,12a-dodecahydrocyclohepta[a]cyclopenta[f]naphthalen-8(9H)-one] has a half-life at 1 μM [2] of 1 to 50 min, an inhibition at 0.01 µM [3] of over 80% and an IC50 [4, 6] of under 11 nM.
`C[C@]12CC[C@H]3[C@@H](CC[C@H]4C[C@@H](O)CC[C@@]43C)C1=CC=C2c1cccnc1` [Compound 163, (5S,8R,9S,10S,13S)-10,13-dimethyl-17-(pyridin-3-yl)-2,3,4,5,6,7,8,9,10,11,12,13-dodecahydro-1H-cyclopenta[a]phenanthren-3-ol] gave a half-life at 1 μM [2] of over 50 min, an inhibition at 0.01 µM [3] of over 80% and an IC50 [4, 6] of under 11 nM.
Work on `C[C@]12CC[C@H]3[C@@H](CC4(CC4)C4=CC(=O)CC[C@@]43C)C1=CC=C2c1cccnc1` [Compound 351, (10R,13S)-10,13-dimethyl-17-(pyridin-3-yl)-1,7,8,9,10,11,12,13-octahydrospiro[cyclopenta[a]phenanthrene-6,1′-cyclopropan]-3(2H)-one] yielded an IC50 [1] of under 10 nM.
Work on `C[C@]1(O)CC[C@@]2(C)C(CCC3C2CC[C@]2(C)C(c4cccnc4)=CCC32)C1` (stereo partly drawn) [Compound 254, (3S,10S,13S)-3,10,13-trimethyl-17-(pyridin-3-yl)-2,3,4,5,6,7,8,9,10,11,12,13,14,15-tetradecahydro-1H-cyclopenta[a]phenanthren-3-ol] yielded a half-life at 1 μM [2] of 1 to 50 min, an IC50 [4] of under 11 nM and an inhibition at 0.001 µM [5, 7] of over 50%.
With `C[C@]12CCC3C(CCC4CCN(S(C)(=O)=O)CC[C@@]43C)C1=CC=C2n1ccnc1` (stereo partly drawn) [Compound 489, (5aS,7aS)-8-(1H-imidazol-1-yl)-5a,7a-dimethyl-3-(methylsulfonyl)-1,2,3,4,5,5a,5b,6,7,7a,10b,11,12,12a-tetradecahydrocyclopenta[5,6]naphtho[1,2-d]azepine] the IC50 [1] was over 1000 nM.
With `CC1CC2C3=CC=C(c4cccnc4)[C@@]3(C)CCC2[C@@]2(C)CCN(C)C(=O)C=C12` (stereo partly drawn) [Compound 393, (5aR,7aS)-3,5a,7a,12-tetramethyl-8-(pyridin-3-yl)-3,4,5,5a,5b,6,7,7a,11,12-decahydrocyclopenta[5,6]naphtho[1,2-d]azepin-2(10bH)-one] the IC50 [1] was 10 to 100 nM.
Molecule `C[C@]12CCN(S(C)(=O)=O)CCC1CC[C@@H]1[C@@H]2CC[C@]2(C)C(n3ccnc3)=CC[C@@H]12` (stereo partly drawn) [Compound 438, (5aS,7aS)-8-(1H-imidazol-1-yl)-5a,7a-dimethyl-3-(methylsulfonyl)-1,2,3,4,5,5a,5b,6,7,7a,10,10a,10b,11,12,12a-hexadecahydrocyclopenta[5,6]naphtho[1,2-d]azepine] has an IC50 [1] of over 1000 nM.
`C[C@]12CCCN(S(C)(=O)=O)CC1CCC1C2CC[C@]2(C)C(n3cncc3C#N)=CCC12` (stereo partly drawn) [Compound 431, 1-((5aR,7aS)-5a,7a-dimethyl-2-(methylsulfonyl)-1,2,3,4,5,5a,5b,6,7,7a,10,10a,10b,11,12,12a-hexadecahydrocyclopenta[5,6]naphtho[2,1-c]azepin-8-yl)-1H-imidazole-5-carbonitrile] gave an IC50 [1] of over 1000 nM.
Molecule `C[C@]12CCN(S(C)(=O)=O)CCC1CCC1C2CC[C@]2(C)C(n3cncc3C#N)=CCC12` (stereo partly drawn) [Compound 432, 1-((5aS,7aS)-5a,7a-dimethyl-3-(methylsulfonyl)-1,2,3,4,5,5a,5b,6,7,7a,10,10a,10b,11,12,12a-hexadecahydrocyclopenta[5,6]naphtho[1,2-d]azepin-8-yl)-1H-imidazole-5-carbonitrile] has an IC50 [1] of over 1000 nM.
In the case of `CN1CC[C@@]2(C)C(=CC1=O)CCC1C3=CC=C(c4cncc(F)c4)[C@@]3(C)CCC12` (stereo partly drawn) [Compound 392, (5aR,7aS)-8-(5-fluoropyridin-3-yl)-3,5a,7a-trimethyl-3,4,5,5a,5b,6,7,7a,11,12-decahydrocyclopenta[5,6]naphtho[1,2-d]azepin-2(10bH)-one], the IC50 [1] is reported as over 100 nM.
Work on `C[C@]12CC[C@H]3[C@@H](CC4(CC4)C4=CC(=O)CC[C@@]43C)C1=CC=C2c1cncc(F)c1` [Compound 354, (10R,13S)-17-(5-fluoropyridin-3-yl)-10,13-dimethyl-1,7,8,9,10,11,12,13-octahydrospiro[cyclopenta[a]phenanthrene-6,1′-cyclopropan]-3(2H)-one] yielded an IC50 [1] of 10 to 100 nM.
For `C[C@]12CCC3C(CC(O)C45CC4CC[C@]35C)C1=CC=C2c1cccnc1` (stereo partly drawn) [Compound 200, (3aR,5aS)-3a,5a-dimethyl-6-(pyridin-3-yl)-1,1a,2,3,3a,3b,4,5,5a,8b,9,10-dodecahydrocyclopenta[a]cyclopropa[2,3]cyclopenta[1,2-f]naphthalen-10-ol], the half-life at 1 μM [2] was 1 to 50 min, the IC50 [4, 8] was under 11 nM and the inhibition at 0.001 µM [5, 7] was over 50%.
Molecule `COc1cncc(C2=CC[C@H]3[C@@H]4CC=C5C[C@H](NC(=O)C6CC6)CC[C@]5(C)[C@H]4CC[C@]23C)c1` [Compound 230, N-((3R,10R,13S)-17-(5-methoxypyridin-3-yl)-10,13-dimethyl-2,3,4,7,8,9,10,11,12,13,14,15-dodecahydro-1H-cyclopenta[a]phenanthren-3-yl)cyclopropanecarboxamide] has a half-life at 1 μM [2] of 1 to 50 min, an IC50 [4, 8] of under 11 nM and an inhibition at 0.001 µM [5, 7] of over 50%.
`C[C@]12CC[C@@H](NC(=O)C3CC3)CC1CCC1C2CC[C@]2(C)C(c3cccnc3)=CCC12` (stereo partly drawn) [Compound 220, N-((3R,10S,13S)-10,13-dimethyl-17-(pyridin-3-yl)-2,3,4,5,6,7,8,9,10,11,12,13,14,15-tetradecahydro-1H-cyclopenta[a]phenanthren-3-yl)cyclopropanecarboxamide] showed a half-life at 1 μM [2] of 1 to 50 min, an IC50 [4, 8] of under 11 nM and an inhibition at 0.001 µM [5, 7] of over 50%.
`CC(=O)N[C@@H]1CC[C@@]2(C)C(=CCC3C2CC[C@]2(C)C(c4cncc(C(F)F)c4)=CCC32)C1` (stereo partly drawn) [Compound 480, N-((3R,10R,13S)-17-(5-(difluoromethyl)pyridin-3-yl)-10,13-dimethyl-2,3,4,7,8,9,10,11,12,13,14,15-dodecahydro-1H-cyclopenta[a]phenanthren-3-yl)acetamide] gave a half-life at 1 μM [2] of 1 to 50 min, an IC50 [4, 9] of under 11 nM and an inhibition at 0.001 µM [5, 10] of over 50%.
`C[C@]12CC[C@H](O)CC1=CCC1C2CC[C@]2(C)C(c3cncc(N)c3)=CCC12` (stereo partly drawn) [Compound 283, (3S,10R,13S)-17-(5-aminopyridin-3-yl)-10,13-dimethyl-2,3,4,7,8,9,10,11,12,13,14,15-dodecahydro-1H-cyclopenta[a]phenanthren-3-ol] gave a half-life at 1 μM [2] of over 50 min, an IC50 [4, 9] of under 11 nM and an inhibition at 0.001 µM [5, 10] of over 50%.
Work on `C[C@]12CCCCC1C(O)C[C@@H]1[C@@H]2CC[C@]2(C)C(n3ccnc3)=CC[C@@H]12` (stereo partly drawn) [Compound 85, (10R,13S)-17-(1H-imidazol-1-yl)-10,13-dimethyl-2,3,4,5,6,7,8,9,10,11,12,13,14,15-tetradecahydro-1H-cyclopenta[a]phenanthren-6-ol] yielded a half-life at 1 μM [2] of 1 to 50 min, an inhibition at 0.01 µM [3] of 50 to 80% and an IC50 [4, 6] of under 11 nM.
Molecule `C[C@]12CCC3C(CC(F)[C@@]4(O)C[C@@H](O)CC[C@]34C)C1CC=C2c1cccnc1` (stereo partly drawn) [Compound 323, (3S,5R,10R,13S)-6-fluoro-10,13-dimethyl-17-(pyridin-3-yl)-2,3,4,5,6,7,8,9,10,11,12,13,14,15-tetradecahydro-1H-cyclopenta[a]phenanthrene-3,5-diol] has a half-life at 1 μM [2] of 1 to 50 min, an IC50 [4, 9] of under 11 nM and an inhibition at 0.001 µM [5, 10] of over 50%.
